Source: publication PMC3486420, “In Vitro and In Vivo Characterizations of Chiglitazar, a Newly Identified PPAR Pan-Agonist” (PPAR Research, 2012)

Legend:
PPARδ [1] = target: T1, PPARδ (Homo sapiens, UniProt Q03181); experiment: PPARδ transactivation reporter gene assay in U2OS cells; type: cell-based; conditions: U2OS cells
T1 construct: expressed in transfected cells; host or cells: SMMC-7721 or U2OS
T1 sequence (Q03181 1-441): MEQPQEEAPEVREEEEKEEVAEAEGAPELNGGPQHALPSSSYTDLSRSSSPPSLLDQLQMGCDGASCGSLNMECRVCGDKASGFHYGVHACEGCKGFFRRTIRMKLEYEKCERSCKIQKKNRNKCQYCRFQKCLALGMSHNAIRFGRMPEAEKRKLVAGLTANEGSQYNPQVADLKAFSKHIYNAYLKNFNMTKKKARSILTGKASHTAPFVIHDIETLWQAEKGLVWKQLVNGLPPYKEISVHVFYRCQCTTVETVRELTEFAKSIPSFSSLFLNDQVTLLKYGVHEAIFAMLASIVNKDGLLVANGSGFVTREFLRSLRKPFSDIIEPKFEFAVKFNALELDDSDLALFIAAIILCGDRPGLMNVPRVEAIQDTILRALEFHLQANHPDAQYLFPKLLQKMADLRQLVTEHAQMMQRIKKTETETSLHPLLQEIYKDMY
T1 sequence (P19793 1-462 partner): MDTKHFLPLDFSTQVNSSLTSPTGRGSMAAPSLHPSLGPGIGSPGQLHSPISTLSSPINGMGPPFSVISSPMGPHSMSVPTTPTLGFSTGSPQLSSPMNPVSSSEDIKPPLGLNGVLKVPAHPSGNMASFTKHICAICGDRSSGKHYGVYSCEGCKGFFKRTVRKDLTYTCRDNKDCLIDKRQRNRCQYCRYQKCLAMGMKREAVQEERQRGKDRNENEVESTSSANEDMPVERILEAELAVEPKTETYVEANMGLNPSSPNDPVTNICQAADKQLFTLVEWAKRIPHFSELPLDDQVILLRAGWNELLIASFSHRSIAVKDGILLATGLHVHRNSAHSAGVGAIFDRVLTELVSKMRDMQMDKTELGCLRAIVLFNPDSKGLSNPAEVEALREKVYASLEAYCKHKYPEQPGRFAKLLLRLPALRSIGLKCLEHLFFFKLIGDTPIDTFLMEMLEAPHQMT

[2] = Tissue distribution of 3H-chiglitazar in rats; type: in vivo, rat; conditions: male Wistar rats, single oral dose 12.5 mg kg^−1 3H-labelled, radioactivity AUC0–24
Protocol: ^3H-chiglitazar was synthesized and provided by the Beijing Institute of Atom Energy with specific activity of 15 Ci mmol^−1 and purity >97%. Tissue distribution of ^3H-chiglitazar in rats was evaluated based on the methods described previously. Briefly, male Wistar rats (~220 g in body weight, 12-week old) were randomly divided into 4 groups (5 per group). After fasted overnight, rats were orally administered with single dose of 12.5 mg kg^−1 of ^3H-chiglitazar (radiation dose 31.7 MBq kg^−1). Rats in different groups were sacrificed at 1.5, 4, 8, and 24 h after dosing. Blood (5–9 mL) was collected via cardiac puncture at the time of sacrifice. […] 1 mL of scintillation fluid was added to each well, and radioactivity was measured by a scintillation counter (Perkin Elmer, Waltham, MA, USA).
Figure 5 Influence on heart weight and tissue distribution of chiglitazar in rats. […] 24 h after the last dosing, animals were sacrificed and the heart weight was evaluated. *P < 0.05 compared with control; n = 5 per group. […] Rats were sacrificed at 1.5, 4, 8, and 24 h after treatment (n = 5 per time point), and various tissues/organs as indicated were taken for radioactivity measurement. The accumulated area under curves through 0 to 24 h (AUC0–24) was calculated based on individual tissue distribution measured at each time point. […] Data are expressed as mean ± SE.

PPARδ [3] = target: T1, PPARδ; experiment: PPARδ transactivation reporter gene assay in SMMC-7721 cells; type: cell-based; conditions: SMMC-7721 cells
Wistar rats = experiment: Influence in heart weight of Wistar rats, 6-month oral dosing; type: in vivo, rat; conditions: for Increase in heart weight: 135 mg kg^−1 (~900 mg/m^2) oral daily, 6 months
Protocol: Male and female Wistar rats of 6-week old were randomly divided into 4 groups, 5 for each male and female per group. Animals in different groups were orally treated daily with chiglitazar suspended in water at the doses of 15, 45, and 135 mg kg^−1, or vehicle (water), for 6 months. 24 h after the last treatment, animals were sacrificed and the weight of heart from individual animals was weighed.
Figure 5 Influence on heart weight and tissue distribution of chiglitazar in rats. (a) Wistar rats were orally administered daily with chiglitazar at the dose of 15, 45 and 135 mg kg^−1 for 6 months. 24 h after the last dosing, animals were sacrificed and the heart weight was evaluated. *P < 0.05 compared with control; n = 5 per group. (b) Male Wistar rats were orally administered with a single dose of ^3H-chiglitazar at 12.5 mg kg^−1 (radiation dose 31.7 MBq kg^−1). Rats were sacrificed at 1.5, 4, 8, and 24 h after treatment (n = 5 per time point), and various tissues/organs as indicated were taken for radioactivity measurement. The accumulated area under curves through 0 to 24 h (AUC0–24) was calculated based on individual tissue distribution measured at each time point. (c) The time course distribution of chiglitazar in different tissues at individual time point (1.5, 4, 8, 24 h). Data are expressed as mean ± SE.

[4] = 24 h treatment, luciferase reporter, hRXR cotransfected, ia: inactive at 10 μM, read-out: PPARδ EC50
[5] = max response compared with 2-Bro at 10 μM

Which EC50 (PPARδ [1]; [4]) does the source give for O=C(c1ccc(F)cc1)c1ccccc1NC(Cc1ccc(OCCn2c3ccccc3c3ccccc32)cc1)C(=O)O (centres unmarked) [Chi, 2-[(2-(4-fluorobenzoyl)phenyl)amino]-3-[4-(2-carbazolylethoxy)-phenyl]-propionic acid] here?
Its EC50 is 1.5 ± 0.2 µM.

What about the “PPARδ % Max” value (PPARδ [1]; [5]) of the same molecule?
The value was 244%.

What about the “Tissue distribution: level in kidney, adipose tissue and heart” value [2] of the same molecule?
Its value is “low levels”.

What about the “Tissue distribution: level in plasma, liver and pancreas” value [2] of the same molecule?
Its value is “high levels”.

What about the EC50 (PPARδ [3]; [4]) of the same molecule?
Its EC50 is 1.7 ± 0.4 µM.

And the “PPARδ % Max” value (PPARδ [3]; [5])?
Its value is 123%.

And the “No-effect dose on heart weight (45 mg kg^−1) relative to optimal efficacy dose (10 mg kg^−1)” value (Wistar rats; Wistar rats)?
The value was “about 4.5 times”.

What about the “Microscopical examination of weight-increased hearts” value (Wistar rats; Wistar rats, 135 mg kg^−1, 6 months (data not shown)) of the same molecule?
Its value is “minimal to mild myocardial hypertrophy”.

And the Heart weight (Wistar rats; Wistar rats, oral daily 6 months, doses as high as 45 mg kg^−1 (~300 mg/m^2))?
Its Heart weight is “did not increase”.

And the “Increase in heart weight” value (Wistar rats; female Wistar rats)?
Its value is “about 20%”.

What about the “Increase in heart weight” value (Wistar rats; male Wistar rats) of the same molecule?
Its value is ~12%.
